According to article PMC9382192, “Combined treatment with epigenetic agents enhances anti-tumor activity of MAGE-D4 peptide-specific T cells by upregulating the MAGE-D4 expression in glioma” (Frontiers in Oncology, 2022):

How the values were obtained:
[1] = tested on: U87; assay: Granzyme A and perforin ELISA, T cells with U87; type: cell-based, human; conditions: T cells stimulated by TSA-treated U87, E:T 50:1, 4 h
Protocol: (§1) The human glioma cell lines (U87-MG and U251) were obtained from the Cell Bank of Type Culture Collection of the Chinese Academy of Science (Shanghai, China). […] A3656), valproic acid (VPA, CAS No. 99-66-1), and trichostatin A (TSA, CAS No. 58880-19-6) were purchased from Sigma-Aldrich Corporation (St. Louis, MO, USA). DAC and TSA were dissolved in DMSO to a concentration of 10 mM. Aliquots were stored at −80°C and diluted with media before being used. […] Four hours later, suspended cells were collected for CD107a flow cytometry, meanwhile, the supernatant was collected and analyzed with granzyme A and perforin ELISA kit (Cloud-Clone Corporation, Wuhan, China) at 450 nm, and the LDH kit (Promega, USA) at 490 nm. The percentage of specific lysis was calculated using the following formula: [(experimental release − spontaneous release)/(maximum release − spontaneous release)] × 100. […] Then, the cytotoxicity assay was measured and calculated as mentioned above.

[2] = tested on: U87 cell-derived tumors; assay: In vivo xenograft tumor model; design: species or system BALB/C nude female mice
Protocol: (§2) Eighteen BALB/C nude female mice aged 4 weeks were provided by the Guangxi Experimental Animal Center. The mice were placed in a light-controlled room at 24 ± 1 °C (light: 7:00–19:00 h, dark: 19:00–7:00 h) and fed under specific pathogen-free conditions. All protocols followed the guidelines of the National Research Council for the Care and Use of Laboratory Animals and were approved by the Animal Ethics Committee of Guangxi Medical University. To develop a xenograft model, 4 × 10^6 U87 cells were inoculated into the flanks of the mice subcutaneously. Two weeks later, mice simultaneously received intraperitoneal peritumorally injections of TSA (0.5 mg/kg) and 1 × 10^7 peptides loaded on CD8^+ T cells, respectively. Every […], tumor volumes were measured simultaneously with a caliper. Mice were sacrificed by euthanasia when visibly ill. Mice injected with negative peptide-induced CTLs and CTLs without peptides were included as controls. The tumor volumes were calculated using the following formula: tumor volume = [(width2 × length)/2].

[3] = tested on: U87 glioma tissues; assay: CD8 immunohistochemistry of xenograft tissue; type: in vivo, BALB/C nude female mice; conditions: MAGE-D4-specific T cells in TSA-treated U87 glioma tissues, IHC
Protocol: as §2, with “length)/2]. Immunochemistry was conducted to detect expressions of CD8 on tissue sections. […] Integrated optical density (IOD) was measured by image-Pro Plus software (version 6.0, Media Cybernetics, MD, USA) for images of five randomly selected regions from a slice. The results were expressed as average optical density (AOD = IOD/area).” for “length)/2].”

[4] = tested on: IL-2; assay: IL-2 ELISA of DC/T-cell co-culture supernatant; type: cell-based, human; conditions: 72 h co-culture supernatant, versus negative control peptide
Protocol: (§3) Production of cytokines in the supernatants was determined using commercially available ELISA kits (Cloud-Clone Corporation, Wuhan, China) according to the protocol of the manufacturer. Approximately 50 μl of supernatant and different concentration standards were added and mixed with 100 μl of horseradish peroxidase (HRP) labeled detection antibody against a 96-well plate, respectively, except for the blank control. After incubation at 37°C for 60 min, we washed the plate five times. Add substrate A and substrate B 50 μl respectively, incubate for 15min in a 37°C incubator in dark. Then, 50 μl of stop solution was added and a 450 nm absorbance value (OD value) was measured within 15 min. The regression equation of the standard curve is calculated according to the concentration of the standard substance and the OD value, and the corresponding sample concentration is calculated on the basis of the regression equation.

[5] = tested on: IFN-γ; assay: IFN-γ ELISA of DC/T-cell co-culture supernatant; type: cell-based, human; conditions: 72 h co-culture supernatant, compared to T cells alone
Protocol: as §3

[6] = tested on: U251; assay: Granzyme A and perforin ELISA, T cells with U251; type: cell-based, human; conditions: T cells incubated with DAC + TSA-treated U251, E:T 50:1, 4 h
Protocol: as §1

Molecule	granzyme A and perforin secreted by T cells [1]	tumor volume ([2]; U87 pre-treated with TSA versus U87, both inoculated with P8-specific T cells, TSA 0.5 mg/kg)	tumor growth ([2]; group treated with TSA versus group treated without TSA)	CD8+ T-cell infiltration in tumor tissue [3]	IL-2 secreted by DC-stimulated T cells [4]	IFN-γ secretion by T cells (ELISA) [5]	granzyme A and perforin secreted by T cells [6]	tumor volume ([2]; U87 xenograft, 1 × 10^7 peptide-specific CD8+ T cells, compared with DC + Tc and NC-DC + Tc groups)
CC(/C=C/C(=O)NO)=C\[C@@H](C)C(=O)c1ccc(N(C)C)cc1 [TSA, trichostatin A]	more granzyme A and perforin	smaller	slower	highest degree				
CLPPPNVIL [Peptide P8]	the most granzyme A and perforin				higher IL-2	high levels of IFN-γ	the most granzyme A and perforin	significantly reduced
